The text below walks through data of article PMC4552316 (Nature chemical biology, 2011).

Data set [1] has as its target T1, human GMPR type 2 (hGMPR2) (Homo sapiens, UniProt Q9P2T1).
T1 sequence (Q9P2T1 1-348): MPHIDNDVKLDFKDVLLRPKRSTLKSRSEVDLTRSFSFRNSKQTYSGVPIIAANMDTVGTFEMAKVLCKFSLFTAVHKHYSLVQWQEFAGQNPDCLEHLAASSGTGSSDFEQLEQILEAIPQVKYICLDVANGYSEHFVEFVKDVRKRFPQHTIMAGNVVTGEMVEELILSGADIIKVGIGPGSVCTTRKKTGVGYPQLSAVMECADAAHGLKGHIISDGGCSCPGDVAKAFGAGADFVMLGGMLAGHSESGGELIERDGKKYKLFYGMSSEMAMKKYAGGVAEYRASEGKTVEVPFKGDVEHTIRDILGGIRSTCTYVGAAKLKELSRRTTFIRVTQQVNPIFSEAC
The experiment in a line: X-ray crystal structure of E•IMP•NADPH, […] Å. The class given is binding.

For data set [2], the target named is E. coli GMPR (EcGMPR), GMP reductase (Escherichia coli, UniProt P60560). The experiment in a line: spectrophotometric enzyme inhibition assay. The class given is biochemical.
E. coli GMPR (EcGMPR), GMP reductase, sequence (P60560 whole entry): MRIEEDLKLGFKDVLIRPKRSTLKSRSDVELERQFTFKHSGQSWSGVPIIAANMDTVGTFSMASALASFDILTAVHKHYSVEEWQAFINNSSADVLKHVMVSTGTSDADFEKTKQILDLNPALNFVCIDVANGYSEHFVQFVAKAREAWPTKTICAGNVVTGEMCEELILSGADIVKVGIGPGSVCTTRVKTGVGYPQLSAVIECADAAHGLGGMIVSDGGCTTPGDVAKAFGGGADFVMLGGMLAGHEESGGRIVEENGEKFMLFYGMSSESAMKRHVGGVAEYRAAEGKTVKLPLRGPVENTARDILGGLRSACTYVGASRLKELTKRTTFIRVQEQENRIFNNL
The test system of data set [3] is O=c1[nH]c(Cl)nc2c1ncn2[C@@H]1O[C@H](COP(=O)(O)O)[C@@H](O)[C@H]1O. The data set is described as follows: purified protein. As to conditions: NADPH or NADP+ catalytic Cys186 (E-XMP* intermediate; none with C186A).
Data set [4] relates to CC(=O)C1=CN([C@@H]2O[C@H](COP(=O)(O)OP(=O)(O)OC[C@H]3O[C@@H](n4cnc5c(N)ncnc54)[C@H](OP(=O)(O)O)[C@@H]3O)[C@@H](O)[C@H]2O)C=CC1. The experiment in a line: purified protein. To be noted: 2-Cl-IMP (co-substrate); varied: cofactor.
Data set [5] deals with the molecule itself. The experiment in a line: crystal structure.

For the molecule `NC(=O)C1=CN([C@@H]2O[C@H](COP(=O)(O)OP(=O)(O)OC[C@H]3O[C@@H](n4cnc5c(N)ncnc54)[C@H](OP(=O)(O)O)[C@@H]3O)[C@@H](O)[C@H]2O)C=CC1` [NADPH], the “X-ray crystal structure of E•IMP•NADPH, 1.7 Å” value in data set [1] is “NADPH was found in two conformations in the seven monomers, an "in" conformation and an "out" conformation”.
In the case of `NC(=O)c1ncn([C@@H]2O[C@H](COP(=O)(O)O)[C@@H](O)[C@H]2O)n1` [Ribavirin monophosphate], in data set [2], the Ki came out at 98 ± 25 µM.
Molecule `NC(=O)c1ncn([C@@H]2O[C@H](COP(=O)(O)O)[C@@H](O)[C@H]2O)c1O` [mizoribine monophosphate] showed a Ki in data set [2] of 0.015 ± 0.003 µM. Against the preceding molecule, the Ki is about 6500-fold lower.
As for “E. coli GMPR (EcGMPR), GMP reductase (Escherichia coli K-12)”, the Km is listed as 7.8 ± 1.1 µM in data set [3] and 11.0 ± 2.0 µM in data set [4].

B1: human GMP reductase type 2 (enzyme)
chain: LDFKDVLLRPKRSTLKSRSEVDLTRSFSFRNSKQTYSGVPIIAANMDTVGTFEMAKVLCKFSLFTAVHKHYSLVQWQEFAGQNPDCLEHLAASSGTGSSDFEQLEQILEAIPQVKYICLDVANGYSEHFVEFVKDVRKRFPQHTIMAGNVVTGEMVEELILSGADIIKVGIGPGSVCTTRKKTGVGYPQLSAVMECADAAHGLKGHIISDGGCSCPGDVAKAFGAGADFVMLGGMLAGHSESGGELIERDGKKYKLFYGMSSEMAMKKYAGGVAEYRASEGKTVEVPFKGDVEHTIRDILGGIRSTCTYVGAAKLKELSRRTTFIRVTQQVN
In the case of B1, the “stoichiometry N” value in data set [5] stood at 4.

By Ki is commonly meant a measure of affinity in units of concentration, obtained from inhibition or displacement. Lower therefore signals tighter binding. The Km is the substrate concentration at which the rate is half of its maximum. As a reminder, the stoichiometry N is a count of units in the complex or per binding partner.
